Test results published in patent publication US9416118B2, “Docosahexaenoyl ethanolamides” (The Brigham and Women's Hospital, Inc., priority 2011, dated 2016).
“Also recorded” adds a separate entry of the source. Like-named read-outs stand apart in the source and are kept apart here.

How the values were obtained:
[1] = test system: platelet-leukocyte aggregates; assay: PAF-stimulated platelet-leukocyte aggregate formation in whole blood (overall statements); type: cell-based; details: human whole blood, 100 nM PAF, 0.01-100 nM dose range
Description: (§1) FIG. 5. […] Human whole blood stimulated with PAF (100 nM) was incubated with 10,17-diHDHEA, 15-HEDPEA or DHEA for 30 min, 37° C. The incubation was stopped via ice-cold RBC lysis buffer. The majority of RBCs were removed and remaining cells were labeled. Platelet-leukocyte aggregate formation or P-selectin mobilization was analyzed using FACS (see Methods). Dose response inhibition of a) platelet-monocyte aggregate formation, b) representative dot plot of platelet-monocyte aggregates, c) platelet-PMN aggregate formation, d) platelet P-selectin mobilization, with indicated products. (diamonds 10,17-diHDHEA; triangles 15-HEDPEA; squares DHEA). Results are mean±SEM of n=5-6 donors. P<0.05 compared to vehicle treatment.
(§2) Whole blood was incubated with either vehicle, HPLC isolated 10,17-diHDHEA or 15-HEDPEA (0.01-100 nM) for 15 min at 37° C. with intermittent mixing. Vehicle or PAF (100 nM, PAF C-16, Cayman Chemical, Ann Arbor, Mich.) was added for another 30 min at 37° C. with intermittent mixing. Incubation was stopped by ice-cold red blood cell lysis buffer (10 min at 4° C.). Cells were collected using centrifugation (210 g, 5 min, 4° C.) then fixed with 3% formalin (15 min, 4° C.). Cells were stained with FITC-anti-human CD41 (1:100, v/v) and PE-anti-human-CD62P (1:100, v/v) for 20 min at 4° C., and were analyzed using a flow cytometry and Cell Quest software as in (23). Cellular composition within whole blood was determined by forward and side scattering as well as cell-specific markers, anti-human-CD41 for platelets, anti-human-CD14 for monocytes and anti-human-CD16 for neutrophils.

[2] = test system: platelet-monocyte aggregates; assay: PAF-stimulated platelet-monocyte aggregate formation in whole blood; type: cell-based, human; details: 100 nM PAF; for Decrease of platelet-monocyte aggregate formation: 10 pM compound, human whole blood
Description: as §1, §2

human CB2 receptor [3] = target: T1, human CB2 receptor (Homo sapiens, UniProt P34972); assay: CB2 beta-arrestin receptor activation (PathHunter chemiluminescence); type: cell-based
Description: (§3) FIG. 4. […] Ligand receptor interactions were determined by increases in chemiluminescence generated upon interaction of the EA labeled beta arrestin with the Pro-Link tagged receptor (see Methods). […] See text for more details.
(§4) Receptor activation with the CB2 beta arrestin system was carried out essentially as in (20,21). HEK cells stably overexpressing human CB2 receptor tagged with Pro-Link and EA labeled beta-arrestin (Discoverx, Fremont Calif.) were plated at 20,000 cells/well of a 96 well plate. […] Ligand receptor interaction was determined by measuring chemiluminescence using the Pathhunter EFC detection kit (Discoverx, Fremont, Calif.), generated upon coupling of the EA labeled beta arrestin with the Pro-Link tagged receptor, with a plate reader (Envision, Perkin Elmer, Santa Clara, Calif.).
(§5) To this end, recombinant human CB receptors were overexpressed in a beta-arrestin system as described in Experimental Procedures.

human PMN = assay: Microfluidic chamber screening of PMN chemotaxis in an IL-8 gradient; type: cell-based
Description: The fabrication and surface modification of the microfluidic devices were prepared as in refs. (9,22). Whole blood (5-10 μl) diluted in HBSS (1:10, v/v) was introduced into the chemotaxis chamber via a cell inlet and neutrophils were captured along the chamber via P-selectin tethering. Next, the transversal gradient of IL-8 (0-10 nM) was introduced to the chemotaxis chamber. After fifteen minutes, novel DHEA metabolites (at a uniform concentration) were introduced to the chemotaxis chamber from the second gradient generator network, and 10 nM IL-8 gradient was maintained Single-cell neutrophil chemotaxis was recorded using microscopy (Nikon, Eclipse E600) equipped with a video camera (Diagnostic, RT Slider) and subject to analysis using ImageJ software (9).
In parallel to structure elucidation, chemotactic screening of HPLC isolated DHEA metabolites obtained from mouse brain was carried out utilizing microfluidic chamber (FIG. 1c). After IL-8 (0-10 nM gradient) was introduced to the main channel of the microfluidic device, P-selectin tethered leukocytes rapidly migrated along the IL-8 chemotactic gradient at an average rate of 2.3 μm/min. After 15 min, the mixture of metabolites was infused into the microfluidic main channel while an IL-8 (0-10 nM) gradient was maintained (FIG. 1c, left panel). […] This decrease in chemotaxic velocity was maintained even after the gradient was switched back to IL-8.
HPLC isolated dioxygenated DHEA products were individually screened for direct PMN actions using microfluidic chambers.

platelet-PMN aggregates = assay: PAF-stimulated platelet-PMN aggregate formation in whole blood; type: cell-based, human; details: 100 nM PAF
Description: as §1
(§6) Whole blood was incubated with either vehicle, HPLC isolated 10,17-diHDHEA or 15-HEDPEA (0.01-100 nM) for 15 min at 37° C. with intermittent mixing. […] Cells were stained with FITC-anti-human CD41 (1:100, v/v) and PE-anti-human-CD62P (1:100, v/v) for 20 min at 4° C., and were analyzed using a flow cytometry and Cell Quest software as in (23). Cellular composition within whole blood was determined by forward and side scattering as well as cell-specific markers, anti-human-CD41 for platelets, anti-human-CD14 for monocytes and anti-human-CD16 for neutrophils.

platelet P-selectin = assay: Platelet P-selectin surface expression in PAF-stimulated whole blood; type: cell-based, human; details: 10 pM to 100 nM
Description: as §1, §6

CB1 receptor [4] = target: T2, CB1 receptor (Homo sapiens, UniProt P21554); assay: CB1 beta-arrestin receptor activation; type: cell-based; set-up: expressed in transfected cells; host or cells: HEK cells; details: HEK cells overexpressing CB1, beta-arrestin system
Description: as §3, §5

[5] = test system: mouse ischemia reperfusion second organ lung injury; assay: Hind limb ischemia / second organ lung reperfusion injury; type: in vivo
Description: Supplemental FIG. 4. 15-HEDPEA is protective in mouse ischemia reperfusion second organ lung injury. Mice were subjected to hind limb ischemia for 1 hr using tourniquets. 15-HEDPEA was intravenously administered 5 min before tourniquet removal. After 2 hr reperfusion, mouse lungs were harvested and the tissue levels of myeloperoxidase (MPO) were determined using a mouse MPO ELISA. Results are expressed as reduction in lung associated decrease in leukocyte myeloperoxidase values (n=3-6).
Murine hind limb vascular occlusion second organ lung reperfusion injury was performed using 6- to 8-week-old FVB male mice and carried out as in (24).

human CB2 receptor [6] = target: T1, human CB2 receptor; assay: AM630 inhibition of ligand-stimulated activation of cells over-expressing CB2; type: cell-based
Description: as §3, §4, §5

CB1 receptor [7] = target: T2, CB1 receptor; details: from reference 31; read-out: Ki, affinity to CB1 receptor; cited from earlier work
[8] = HEK cells overexpressing human CB2, beta-arrestin system, 1 h, 37° C., 1 pM to 100 nM, read-out: EC50 for activation of CB2
[9] = 10 nM compound, 0-10 nM IL-8 gradient

T1 sequence (P34972 whole entry): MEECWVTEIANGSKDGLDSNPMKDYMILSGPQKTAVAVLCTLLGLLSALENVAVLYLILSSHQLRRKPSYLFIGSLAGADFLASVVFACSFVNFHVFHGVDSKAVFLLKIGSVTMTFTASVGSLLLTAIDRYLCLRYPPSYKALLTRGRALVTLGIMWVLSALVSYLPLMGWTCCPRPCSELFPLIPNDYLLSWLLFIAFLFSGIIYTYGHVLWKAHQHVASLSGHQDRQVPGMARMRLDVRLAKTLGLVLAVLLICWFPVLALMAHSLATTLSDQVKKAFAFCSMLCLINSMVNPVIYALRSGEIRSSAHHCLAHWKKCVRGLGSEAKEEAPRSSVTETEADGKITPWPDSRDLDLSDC
T2 sequence (P21554 whole entry): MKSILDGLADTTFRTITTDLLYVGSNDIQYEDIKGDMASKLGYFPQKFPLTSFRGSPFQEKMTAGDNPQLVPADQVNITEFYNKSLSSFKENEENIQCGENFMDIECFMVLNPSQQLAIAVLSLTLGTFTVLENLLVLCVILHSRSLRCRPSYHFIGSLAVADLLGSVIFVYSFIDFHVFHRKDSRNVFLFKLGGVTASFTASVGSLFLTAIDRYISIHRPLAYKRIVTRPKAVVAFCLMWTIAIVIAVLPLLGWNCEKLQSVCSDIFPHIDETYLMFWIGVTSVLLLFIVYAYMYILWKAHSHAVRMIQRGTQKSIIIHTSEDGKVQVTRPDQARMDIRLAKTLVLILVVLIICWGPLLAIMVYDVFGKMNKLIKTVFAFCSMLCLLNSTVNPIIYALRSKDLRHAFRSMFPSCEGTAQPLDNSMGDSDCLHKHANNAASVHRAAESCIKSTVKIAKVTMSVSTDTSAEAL

With `CC/C=C\C[C@H](O)/C=C/C=C\C=C\[C@H](O)C/C=C\C/C=C\CCC(=O)NCCO` (single isomer, unassigned) [10,17-diHDHEA, 10,17-dihydroxydocosa-4Z,7Z,11,13Z,15,19Z-hexaenoylethanolamide] the “Effect on platelet-leukocyte aggregate formation (in words)” value [1] was “prevented formation of platelet-leukocyte aggregates”, the “Effect on platelet-leukocyte aggregate formation (in words)” value ([1]; listed as 10,17S-diHDHEA) was “block PAF-stimulated platelet-leukocyte aggregate formation” and the “Decrease of platelet-monocyte aggregate formation” value [2] was about 30%. The “Maximum reduction of platelet-monocyte aggregate formation” value ([2]; 100 pM compound, bell-shaped dose response) was about 40%, the EC50 (human CB2 receptor [3]; [8]) was 0.39 nM and the “Effect on PMN chemotaxis (in words)” value (human PMN; [9]) was “did not significantly regulate chemotaxis”. The “Effect on PMN chemotaxis (in words)” value (human PMN; 10 μM compound, IL-8 gradient) was “rapidly stopped PMN chemotaxis”, the “Decrease of platelet-PMN aggregates” value (platelet-PMN aggregates; human whole blood) was 25%-35% and the “Inhibition of PMN-platelet aggregate formation (in words)” value (platelet-PMN aggregates; concentrations as low as 10 pM) was “inhibited”. The “Effect on P-selectin surface expression of platelets (in words)” value (platelet P-selectin) was “blocked P-selectin surface expression”, the “Effect on P-selectin surface expression of platelets (in words)” value (platelet P-selectin; listed as 10,17-diHDEA) was “inhibited” and the “Activation of CB1 receptors (in words)” value (CB1 receptor [4]) was “activated CB1 receptors but required much higher concentrations”.

With `CC/C=C\C[C@H](O)/C=C/C=C\C/C=C\C/C=C\C=C\[C@H](O)CCC(=O)NCCO` [4,17-diHDHEA, 4,17-dihydroxydocosa-5,7Z,10Z,13Z,15,19Z-hexaenoylethanolamide] the “Effect on PMN chemotaxis (in words)” value (human PMN; [9]) was “did not significantly regulate chemotaxis”.

In the case of `CC/C=C\C[C@H](O)/C=C/C=C\C/C=C\C=C\[C@H](O)C/C=C\CCC(=O)NCCO` [7,17-diHDHEA, 7,17-dihydroxydocosa-4Z,8E,10Z,13Z,15,19Z-hexaenoylethanolamide], the “Effect on PMN chemotaxis (in words)” value (human PMN; [9]) is reported as “did not significantly regulate chemotaxis”.

In the case of `CCCCC[C@H](O)/C=C/C=C\C/C=C\C/C=C\CCCC(=O)NCCO` [15(S)-HAEA, 15(S)-HETE ethanolamide, reference compound], the “Stimulation of CB2 receptors (in words)” value (human CB2 receptor [3]; beta-arrestin system, tested dose range 1 pM to 100 nM) is reported as “did not stimulate CB2 receptors”.

With `CC/C=C\CC1OC1C(O)/C=C\C/C=C\C/C=C\C/C=C\CCC(=O)NCCO` (centres unmarked) [15-HEDPEA, 15-hydroxy-16(17)-epoxydocosa-4Z,7Z,10Z,13Z,19Z-pentaenoylethanolamide] the “Effect on platelet-leukocyte aggregate formation (in words)” value [1] was “block PAF-stimulated platelet-leukocyte aggregate formation; also recorded: prevented formation of platelet-leukocyte aggregates”, the “Decrease of platelet-monocyte aggregate formation” value [2] was about 30% and the EC50 (human CB2 receptor [3]; [8]) was 0.1 nM. For the same compound, the “Effect on PMN chemotaxis (in words)” value (human PMN; [9]) was “effectively stopped PMN chemotaxis; also recorded: stopped further PMN migration”, the “Time after which further PMN migration stopped” value (human PMN; 10 nM compound, IL-8 gradient) was about 4 min and the “Reduction of lung PMN infiltration (MPO) compared to vehicle” value ([5]; 1 μg/mouse intravenously, 1 h ischemia, 2 h reperfusion) was about 50%. For the same compound, the “Organ protection (in words)” value ([5]; mouse reperfusion second organ injury, 1 μg/mouse) was “organ protective” and the “Activation of CB1 receptors (in words)” value (CB1 receptor [4]) was “activated CB1 receptors but required much higher concentrations”.

In the case of `COc1ccc(C(=O)c2c(C)n(CCN3CCOCC3)c3cc(I)ccc23)cc1` [AM630], the “AM630 inhibition of CB2 activation stimulated with 15-HEDPEA” value (human CB2 receptor [6]; 15-HEDPEA 10 nM) is reported as “inhibited activation”, the “AM630 inhibition of CB2 activation stimulated with AEA” value (human CB2 receptor [6]; AEA 10 nM, positive control) is reported as “inhibited activation” and the “AM630 inhibition of CB2 interaction with 10,17-diHDHEA” value (human CB2 receptor [6]; at higher concentration, n=3, data not shown) is reported as “inhibited GPCR CB2 interaction”.

For `CCC=CCC=CCC=CCC=CCC=CCC=CCCC(=O)NCCO` [DHEA, docosahexaenoylethanolamide, reference compound], the “Effect on platelet-leukocyte aggregate formation (in words)” value [1] is given as “did not significantly inhibit; also recorded: not active”, the EC50 (human CB2 receptor [3]) is given as 9.8 nM and the Ki (CB1 receptor [7]) is given as 324 nM.
